Source: US5369126A, “Nonatetraenoic acid derivative for use in treating acne” (Hoffmann-La Roche Inc., priority 1993, dated 1994)
Where two headings read alike, the source gives them in different places.

Key:
[1] = test system: human sebaceous cells (sebocytes); assay: Inhibition of human sebocyte proliferation in vitro; assay type: cell-based; settings: read-out: ED50, inhibition of human sebocyte proliferation in vitro
Experimental: The cells are cultured in Iscove's medium containing 10% fetal calf serum and 4 μg/ml dexamethasone.
Cells are plated in medium without the test compound and then given test compound in fresh medium 24-48 hours after the initial plating. The cultures are given fresh medium containing the test compound, every 48 hours. On the day of harvesting, the cultures are rinsed with 0.03% EDTA in PBS to remove only the 3T3 fibroblasts, followed by incubation in 0.05% trypsin/0.03% EDTA. The cells are suspended, mixed vigorously to prepare a single cell suspension and counted in a hemocytometer.
All test compounds are handled in the following manner. Stock solutions are made up as 10^-2 M solutions in DMSO and stored at -20° C. in the dark. Solutions are never used after one month of storage. During experimental use, the solutions, which have been aliquoted, are brought to room temperature and used by diluting directly into complete medium to the appropriate concentration.

[2] = test system: hamster ear sebaceous glands; assay: Hamster ear sebaceous gland assay, oral dosing; assay type: in vivo, Golden Syrian hamster (male); settings: 4 weeks
Experimental: Charles River Golden Syrian male hamsters, weighing between 150 to 160 grams, were housed for one month after receipt before dosing with compounds. […] Fresh solutions were made up weekly.
Hamsters were given 0.2 ml of drug solution via oral intubation. Animals were dosed daily for five days, rested for two days, and dosed again for five days until 20 doses were given. Hamsters were weighed at the beginning and end of the dosing regimen.
Hamsters were sacrificed by CO2 inhalation, and the ears removed for histological evaluation. One ear was fixed with 10% buffered formalin, processed for paraffin embedding, sectioned, and stained with hematoxylin and eosin (H&E). The area of sebaceous glands in cross-sections of hamster ears was examined by image analysis using a Leitz TAS Plus system.
Data is given as the average area of 30-40 sebaceous glands as percent of the control (solvent-treated) sections.

rhino mouse utricles [3] = assay: Rhino mouse utricle assay, topical dosing; assay type: in vivo; settings: 3 weeks, vs solvent-treated control
Experimental: (§1) Male and female rhino mice were weighed prior to the start of an experiment. For topical studies, test compounds are dissolved in 100% acetone and 100 μl applied to the dorsa of the mice five times a week, once daily, for three weeks. For oral studies, test compounds were dissolved in 100% propylene glycol and 100 μl given by oral intubation 5 times a week, once daily, for three weeks. Final body weights were recorded at the time of sacrifice, done by CO2 inhalation. A flap of skin from the dorsa was cut out and processed by histological methods to produce a whole mount of the tissue. Utricle size was measured by image analysis using either the Leitz TAS Plus system or the Ultimage system on a modified MACINTOSH computer. Data is given as the % change from solvent-treated control tissue (Tables 3 and 4).

rhino mouse utricles [4] = assay: Rhino mouse utricle assay, oral dosing; assay type: in vivo; settings: 3 weeks, vs solvent-treated control
Experimental: as §1

human sebaceous glands = settings: Landthaler et al., 1980; cited from earlier work
acne = settings: Farrell 1980; Hammerstein 1975; Lyons 1982; Weissman 1985; cited from earlier work
[5] = in vivo; cited from earlier work
[6] = test system: Syrian hamster ear sebaceous gland; settings: Plewig et al., 1981; cited from earlier work
[7] = Toxicity observed in the acne models of Examples 2-4; assay type: in vivo
Experimental: The compound of the invention was tested as described in Examples 2-4, below, in several acne models.

[8] = Experiment 2, oral 0.5 mg/kg, vs solvent-treated control
[9] = Experiment 2, oral 2.5 mg/kg, vs solvent-treated control
[10] = Experiment 2, oral 5 mg/kg, vs solvent-treated control
[11] = Experiment 2, oral 10 mg/kg, vs solvent-treated control
[12] = Experiment 1, topical 0.01 % solution in acetone
[13] = Experiment 1, topical 0.1 % solution in acetone
[14] = Experiment 2, topical 0.001 % solution in acetone
[15] = Experiment 2, topical 0.01 % solution in acetone
[16] = Experiment 2, topical 0.1 % solution in acetone
[17] = oral 0.25 mg/kg in propylene glycol
[18] = oral 1.25 mg/kg in propylene glycol
[19] = oral 5 mg/kg in propylene glycol

SMILES	% Decrease, hamster ear sebaceous gland size [2, 8] [%]	% Decrease, hamster ear sebaceous gland size [2, 9] [%]	% Decrease, hamster ear sebaceous gland size [2, 10] [%]	% Decrease, hamster ear sebaceous gland size [2, 11] [%]	% Decrease, rhino mouse utricle size (rhino mouse utricles [3]; [12]) [%]	% Decrease, rhino mouse utricle size (rhino mouse utricles [3]; [13]) [%]	% Decrease, rhino mouse utricle size (rhino mouse utricles [3]; [14]) [%]	% Decrease, rhino mouse utricle size (rhino mouse utricles [3]; [15]) [%]	% Decrease, rhino mouse utricle size (rhino mouse utricles [3]; [16]) [%]	% Decrease, rhino mouse utricle size (rhino mouse utricles [4]; [17]) [%]	% Decrease, rhino mouse utricle size (rhino mouse utricles [4]; [18]) [%]	% Decrease, rhino mouse utricle size (rhino mouse utricles [4]; [19]) [%]	effect on sebum production (acne)	effect on severity of acne (acne)	other results
CC1=C(/C=C/C(C)=C/C=C/C(C)=C\C(=O)O)C(C)(C)CCC1 [13-cis retinoic acid, reference compound]	-13	-24	-34	-30	-44	-55	-27	-58	-61	-19	-39	-47	reduce sebum production	reduce the severity of acne	IC50 [1]: 50 nM; reduction of the size of human sebaceous glands (human sebaceous glands): up to 90%; side effects [5]: deleterious side effects such as hypervitaminosis A; sensitivity of Syrian hamster ear sebaceous gland [6]: sensitive
CCCCCCCCCOc1c(C)cc(C)cc1/C=C/C(C)=C/C=C/C(C)=C/C(=O)O [Compound I, (all-E)-3,7-dimethyl-9-[3,5-dimethyl-2-(nonyloxy)-phenyl]-2,4,6,8-nonatetraenoic acid]	-11	-18	-24	-33	-10	-42	-1	-11	-30	-23	-23	-28	–	–	IC50 ([1]; amount necessary to inhibit proliferation by 50% vs diluent-treated control, tested at 10^-6 to 10^-9 M): 10 nM; % Decrease, hamster ear sebaceous gland size ([2]; Experiment 1, oral 0.5 mg/kg, vs solvent-treated control): -19%; % Decrease, hamster ear sebaceous gland size ([2]; Experiment 1, oral 1.5 mg/kg, vs solvent-treated control): -27%; % Decrease, hamster ear sebaceous gland size ([2]; Experiment 1, oral 5 mg/kg, vs solvent-treated control): -33%; % Decrease, hamster ear sebaceous gland size ([2]; Experiment 3a, vehicle = Propylene Glycol, oral 0.5 mg/kg): -19%; % Decrease, hamster ear sebaceous gland size ([2]; Experiment 3a, vehicle = Propylene Glycol, oral 1.6 mg/kg): -27%; % Decrease, hamster ear sebaceous gland size ([2]; Experiment 3a, vehicle = Propylene Glycol, oral 6 mg/kg): -33%; % Decrease, hamster ear sebaceous gland size ([2]; Experiment 3b, vehicle = Labrafil, oral 0.6 mg/kg): -18%; % Decrease, hamster ear sebaceous gland size ([2]; Experiment 3b, vehicle = Labrafil, oral 1.6 mg/kg): -26%; % Decrease, hamster ear sebaceous gland size ([2]; Experiment 3b, vehicle = Labrafil, oral 5 mg/kg): -26%; % Decrease, hamster ear sebaceous gland size ([2]; Experiment 3c, vehicle = Tween 80, oral 0.5 mg/kg): -13%; % Decrease, hamster ear sebaceous gland size ([2]; Experiment 3c, vehicle = Tween 80, oral 1.4 mg/kg): -13%; % Decrease, hamster ear sebaceous gland size ([2]; Experiment 3c, vehicle = Tween 80, oral 6 mg/kg): -22%; toxicity at all doses tested [7]: non-toxic at all doses tested
CC(=O)O[C@]1(C(C)=O)CC[C@H]2[C@@H]3C=C(Cl)C4=CC(=O)[C@@H]5C[C@@H]5[C@]4(C)[C@H]3CC[C@@]21C [cyproterone acetate]	–	–	–	–	–	–	–	–	–	–	–	–	reduce sebum production	reduce the severity of acne	–
CC(=O)S[C@@H]1CC2=CC(=O)CC[C@]2(C)[C@H]2CC[C@@]3(C)[C@@H](CC[C@@]34CCC(=O)O4)[C@H]12 [spironolactone]	–	–	–	–	–	–	–	–	–	–	–	–	reduce sebum production	reduce the severity of acne	–
